Experimental data from patent publication US12496294B2, “Methods for improving exercise performance and endurance thereof” (NANJING NUTRABUILDING BIO-TECH CO., LTD., priority 2020, dated 2025).

What was measured:
mice [1] = assay: SOD, CAT and MDA levels in plasma after treadmill exhaustion test (commercial kits); type: in vivo; settings: for SOD level in plasma: FIG. 4; for CAT level in plasma: FIG. 5; for MDA level in plasma: FIG. 6
Procedure: (§1) Prior to the experiment, all mice were acclimatized on a treadmill by running at 15% incline and at 10 m/min for two days. After the 2-day acclimatization, 40 mice were randomly divided into four groups as followings (10 for each group): Control group (normal diet supplemented with distilled water), Dihydroberberine (high) group (normal diet supplemented with dihydroberberine 26 mg/kg daily), Dihydroberberine (medium) group: (normal diet supplemented with dihydroberberine 19.5 mg/kg daily), Dihydroberberine (low) group (normal diet supplemented with dihydroberberine 13 mg/kg daily). Each group was fed on a normal diet, other than that, three experimental groups were supplemented with dihydroberberine daily for two consecutive months, while the control group was only supplemented with distilled water at the same time. Exercise endurance of the mice was evaluated by treadmill running. At the beginning of the formal experiment, mice were placed on treadmill, running at 10 m/min for 20 minutes, and then the running speed was increased by 2 m/min every 2nd minutes. End point occurs if the mouse touched the shock grid of the treadmill three times or on the treadmill for 5 consecutive seconds without attempting to reengage the treadmill. At the end point, the running distance, highest running speed, total running time of the mice were recorded^[7].
(§2) After the treadmill exhaustion test, blood samples were collected from the mice into heparin tubes. By centrifugation at 4500 rpm for 15 minutes, plasma was separated from the top layer of the whole blood and red blood cells were also separated from the lower layer of the blood. The levels of superoxide dismutase (SOD), catalase (CAT), and malondialdehyde (MDA) in the plasma were determined using commercially available kits.

AMPK = AMPK level in red blood cells after treadmill exhaustion test; type: in vivo, mice; settings: group supplemented with high dose of DHB (26 mg/kg daily); FIG. 10
Procedure: as §1, with “At the beginning of the formal experiment, mice were placed on treadmill, running at 10 m/min for 20 minutes, and then the running speed was increased by 2 m/min every 2nd minutes. End point occurs if the mouse touched the shock grid of the treadmill three times or on the treadmill for 5 consecutive seconds without attempting to reengage the treadmill.” left out
After the treadmill exhaustion test, blood samples were collected from the mice into heparin tubes. […] The levels of superoxide dismutase (SOD), catalase (CAT), and malondialdehyde (MDA) in the plasma were determined using commercially available kits. […]

mice [2] = assay: Treadmill running exercise endurance test in mice after DHB supplementation; type: in vivo; settings: DHB 13, 19.5 or 26 mg/kg daily for two consecutive months, vs control group
Procedure: as §1
FIGS. 1-3 show the exercise performance and endurance of mice after supplemented with DHB for two consecutive months.

red blood cells = assay: ROS, 2,3-DPG and T-AOC in red blood cells after treadmill exhaustion test (commercial kits); type: in vivo, mice; settings: for T-AOC level in the red blood cell: FIG. 9
Procedure: as §1, §2
The reactive oxygen species (ROS), 2,3-diphosphoglycerate (2,3-DPG), and total antioxidant capacity (T-AOC) in red blood cells were also determined using commercially available kits.

[3] = groups with administration of DHB (13, 19.5, 26 mg/kg daily, two months)
[4] = high-dose group (26 mg/kg daily), p<0.001

SMILES: COc1ccc2c(c1OC)CN1CCc3cc4c(cc3C1=C2)OCO4 [DHB, dihydroberberine]
- SOD level in plasma (mice [1]; groups supplemented with DHB (13, 19.5, 26 mg/kg daily, two months) vs control): higher than the control group
- CAT level in plasma (mice [1]; [3]): increased
- MDA level in plasma (mice [1]; [3]): increased
- CAT level in plasma (mice [1]; high dose group (26 mg/kg daily), p<0.05): increased significantly
- SOD level in plasma (mice [1]; high-dose DHB group (26 mg/kg daily), p<0.01): increased significantly
- MDA level in plasma (mice [1]; [4]): increased significantly
- CAT level in plasma (mice [1]; middle dose group (19.5 mg/kg daily), p<0.05): increased significantly
- AMPK level in red blood cells (AMPK): decreased slightly
- running distance (mice [2]; FIG. 1): enhanced endurance and better performance
- highest running speed (mice [2]; FIG. 2): enhanced endurance and better performance
- running time (mice [2]; FIG. 3): enhanced endurance and better performance
- ROS level in the red blood cell (red blood cells; groups supplemented with DHB (13, 19.5, 26 mg/kg daily, two months), FIG. 7): increased
- 2,3-DPG level in the red blood cell (red blood cells; groups supplemented with DHB (13, 19.5, 26 mg/kg daily, two months), FIG. 8): increased
- T-AOC level in the red blood cell (red blood cells; groups supplemented with DHB (13, 19.5, 26 mg/kg daily, two months)): increased
- T-AOC level in the red blood cell (red blood cells; [4]): increased significantly
